From article PMC10353187, “Discovery of a new potent oxindole multi-kinase inhibitor among a series of designed 3-alkenyl-oxindoles with ancillary carbonic anhydrase inhibitory activity as antiproliferative agents” (BMC Chemistry, 2023)

How the values were obtained:
NCI-H23 = assay: NCI-60 single-dose antiproliferative assay (SRB); format: cell-based; details: Homo sapiens; 10 μM single dose; NCI-H23, Non-small cell lung cancer; read-out: Cell Growth inhibition Percent
Experimental: (§1) From the newly synthesized compounds, eleven compounds (4c, 4d, 5, 9a, 9b, 11a, 11b, 13b, 13c, 15b, and 15c) were selected by the National Cancer Institute (NCI) Developmental Therapeutics Program (DTP), Bethesda, Maryland, USA for the in vitro anti-proliferative activity evaluation. The selected compounds were examined at 10 μM dose against the NCI 60-cell line panel. This panel consists of nine cell line groups of leukemia, non-small cell lung carcinoma (NSCLC), melanoma, colon, CNS, ovarian, renal, prostate, and breast cancers. The results are reported as mean-graph of the percent growth relative to control and presented as percentage growth inhibition (GI%), furthermore, mean GI% of each compound over all panel cell lines was calculated (Table 1; Additional file 1; S3: In vitro biological activity).
(§2) From the newly synthesized compounds, eleven compounds were selected by the National Cancer Institute (NCI) Developmental Therapeutics Program (DTP), Bethesda, Maryland, USA for the in vitro anti-proliferative activity evaluation (For further details see supplementary materials).
(§3) NCI In-vitro Cancer Screening is a two-phase procedure that starts with the assessment of all compounds against the sixty NCI cell line panel depicting leukemia, NSCLC, CNS cancer, melanoma, prostate cancer, breast cancer, renal cancer, colon cancer and ovarian cancer cell lines at a single point of 10μM. The output from the single-dose screen is reportable as a mean graph.
(§4) The human tumor cell lines of the cancer screening panel were grown in RPMI 1640 medium containing 5% fetal bovine serum and 2 mM L-glutamine. For a typical screening experiment, cells were inoculated into 96 well microtiter plates in […] at plating densities ranging from 5000 to 40,000 cells/well depending on the doubling time of individual cell lines. After cell inoculation, the microtiter plates were incubated at 37 °C, 5% CO2, 95% air and 100% relative humidity for 24 h prior to addition of experimental drugs. After 24 h, two plates of each cell line were fixed in situ with trichloroacetic acid (TCA), to represent a measurement of the cell population for each cell line at the time of drug addition (Tz). Experimental drugs were solubilized in dimethyl sulfoxide at 400-fold the desired final maximum test concentration and stored frozen prior to use. At the time of drug addition, an aliquot of frozen concentrate was thawed and diluted to twice the desired final maximum test concentration with complete medium containing 50 µg/ml gentamicin. Aliquot of 100 µl of the drug dilution was added to the appropriate microtiter wells already containing 100 µl of medium, resulting in the required final drug concentration (10 µM). Triplicate wells were prepared for each individual dose. Following drug addition, the plates were incubated for an additional 48 h at 37 °C, 5% CO2, 95% air, and 100% relative humidity. For adherent cells, the assay was terminated by the addition of cold TCA. Cells were fixed in situ by the gentle addition of 50 µl of cold 50% (w/v) TCA (final concentration, 10% TCA) and incubated for 60 min at 4 °C. The supernatant was discarded, and the plates were washed five times with tap water and air dried. Sulforhodamine B (SRB) solution (100 µl) at 0.4% (w/v) in 1% acetic acid was added to each well, and plates were incubated for 10 min at room temperature. After staining, unbound dye was removed by washing five times with 1% acetic acid and the plates were air dried. Bound stain was subsequently solubilized with 10 mM trizma base, and the absorbance was read on an automated plate reader at a wavelength of 515 nm. For suspension cells, the methodology was the same except that the assay was terminated by fixing settled cells at the bottom of the wells by gently adding 50 µl of 80% TCA (final concentration, 16% TCA). […]

SNB-75 = assay: NCI-60 single-dose antiproliferative assay (SRB); format: cell-based; details: Homo sapiens; 10 μM single dose; SNB-75, CNS cancer; read-out: Cell Growth inhibition Percent
Experimental: as §1, §2, §3, §4

SF-268 = assay: NCI-60 single-dose antiproliferative assay (SRB); format: cell-based; details: Homo sapiens; 10 μM single dose; SF-268, CNS cancer; read-out: Cell Growth inhibition Percent
Experimental: as §1, §2, §3, §4

EKVX = assay: NCI-60 single-dose antiproliferative assay (SRB); format: cell-based; details: Homo sapiens, 10 μM single dose, Non-small cell lung cancer, read-out: Cell Growth inhibition Percent
Experimental: as §1, §2, §3, §4

KM12 = assay: NCI-60 single-dose antiproliferative assay (SRB); format: cell-based; details: Homo sapiens; 10 μM single dose; KM12, Colon cancer; read-out: Cell Growth inhibition Percent
Experimental: as §1, §2, §3, §4

MCF7 = assay: NCI-60 single-dose antiproliferative assay (SRB); format: cell-based; details: Homo sapiens; 10 μM single dose; MCF7, Breast cancer; read-out: Cell Growth inhibition Percent
Experimental: as §1, §2, §3, §4

SK-MEL-5 = assay: NCI-60 single-dose antiproliferative assay (SRB); format: cell-based; details: Homo sapiens; 10 μM single dose; SK-MEL-5, Melanoma; read-out: Cell Growth inhibition Percent
Experimental: as §1, §2, §3, §4

HOP-92 = assay: NCI-60 single-dose antiproliferative assay (SRB); format: cell-based; details: Homo sapiens; 10 μM single dose; HOP-92, Non-small cell lung cancer; read-out: Cell Growth inhibition Percent
Experimental: as §1, §2, §3, §4

IGROV1 = assay: NCI-60 single-dose antiproliferative assay (SRB); format: cell-based; details: Homo sapiens, IGROV-1; 10 μM single dose; IGROV1, Ovarian Cancer; read-out: Cell Growth inhibition Percent
Experimental: as §1, §2, §3, §4

ACHN = assay: NCI-60 single-dose antiproliferative assay (SRB); format: cell-based; details: Homo sapiens, 10 μM single dose, Renal cancer, read-out: Cell Growth inhibition Percent
Experimental: as §1, §2, §3, §4

PC-3 = assay: NCI-60 single-dose antiproliferative assay (SRB); format: cell-based; details: Homo sapiens; 10 μM single dose; PC-3, Prostate cancer; read-out: Cell Growth inhibition Percent
Experimental: as §1, §2, §3, §4

MDA-MB-231/ATCC = assay: NCI-60 single-dose antiproliferative assay (SRB); format: cell-based; details: Homo sapiens, 10 μM single dose, Breast cancer, read-out: Cell Growth inhibition Percent
Experimental: as §1, §2, §3, §4

NCI-H226 = assay: NCI-60 single-dose antiproliferative assay (SRB); format: cell-based; details: Homo sapiens; 10 μM single dose; NCI-H226, Non-small cell lung cancer; read-out: Cell Growth inhibition Percent
Experimental: as §1, §2, §3, §4

CAKI-1 = assay: NCI-60 single-dose antiproliferative assay (SRB); format: cell-based; details: Homo sapiens; 10 μM single dose; CAKI-1, Renal cancer; read-out: Cell Growth inhibition Percent
Experimental: as §1, §2, §3, §4

hCA I = hCA I (Homo sapiens, UniProt P00915); assay: Stopped flow CO2 hydrase assay
SR = assay: NCI-60 single-dose antiproliferative assay (SRB); format: cell-based; details: Homo sapiens, 10 μM single dose, Leukemia, read-out: Cell Growth inhibition Percent
Experimental: as §1, §2, §3, §4

OVCAR-4 = assay: NCI-60 single-dose antiproliferative assay (SRB); format: cell-based; details: Homo sapiens; 10 μM single dose; OVCAR-4, Ovarian Cancer; read-out: Cell Growth inhibition Percent
Experimental: as §1, §2, §3, §4

LOX IMVI = assay: NCI-60 single-dose antiproliferative assay (SRB); format: cell-based; details: Homo sapiens, 10 μM single dose, Melanoma, read-out: Cell Growth inhibition Percent
Experimental: as §1, §2, §3, §4

Chain of hCA I (P00915 whole entry): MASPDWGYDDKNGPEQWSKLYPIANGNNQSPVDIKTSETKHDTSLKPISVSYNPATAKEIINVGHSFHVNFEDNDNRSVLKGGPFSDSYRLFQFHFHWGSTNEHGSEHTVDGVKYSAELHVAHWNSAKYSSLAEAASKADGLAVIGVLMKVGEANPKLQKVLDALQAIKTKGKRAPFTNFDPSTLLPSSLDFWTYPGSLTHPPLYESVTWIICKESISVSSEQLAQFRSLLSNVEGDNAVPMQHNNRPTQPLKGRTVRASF

SMILES	inhibition at 10 µM (NCI-H23) [%]	inhibition at 10 µM (SNB-75) [%]	inhibition at 10 µM (SF-268) [%]	inhibition at 10 µM (EKVX) [%]	inhibition at 10 µM (KM12) [%]	inhibition at 10 µM (MCF7) [%]	inhibition at 10 µM (SK-MEL-5) [%]	inhibition at 10 µM (HOP-92) [%]	inhibition at 10 µM (IGROV1) [%]	inhibition at 10 µM (ACHN) [%]	inhibition at 10 µM (PC-3) [%]	inhibition at 10 µM (MDA-MB-231/ATCC) [%]	inhibition at 10 µM (NCI-H226) [%]	inhibition at 10 µM (CAKI-1) [%]	melting point [°C]	Ki (hCA I) [µM]	inhibition at 10 µM (SR) [%]	inhibition at 10 µM (OVCAR-4) [%]	inhibition at 10 µM (LOX IMVI) [%]
NS(=O)(=O)N/C=C1/C(=O)Nc2ccccc21 [Compound 5, 3-(sulfamidmethylene)indoline-2-one]	13.3	16.5	2.04	18.8	1.51	6.19	1.04	11	18.6	10.9	5.36	5.14	8.23	11.2	158 to 160	6.35	–	–	–
O=C1Nc2ccccc2C1=CNc1ccc(C(=O)O)cc1 [Compound 4c, 4-{[(2-Oxoindolin-3-ylidene)methyl]amino}benzoic acid]	7.13	44.3	16.4	24.3	49.2	1.59	1.74	16.4	24.1	1.58	7.71	4.54	11.4	29.1	> 300	6.32	4.7	13.3	6.93
O=C1Nc2ccccc2C1=CNc1ccc(CNc2ccc(S(=O)(=O)Nc3ncccn3)cc2)cc1 [Compound 11b, 4-{[4-({[2-Oxoindolin-3-ylidene]methyl}amino)benzyl]amino}-N-(pyrimidin-2-yl)benzenesulfonamide]	17.4	16.6	1.02	16	77.3	37.2	15.2	15.4	23.5	16.7	14.2	8.34	16.8	48.4	–	9.11	42.2	11.5	8.3
NS(=O)(=O)c1ccc(NCc2ccc(NC=C3C(=O)Nc4ccccc43)cc2)cc1 [Compound 11a, 4-{[4-({[2-Oxoindolin-3-ylidene]methyl}amino)benzyl]amino}benzenesulfonamide]	12	32.8	11.3	47.4	13.9	23	5.94	–	32.7	7.22	7.36	16.5	19.1	34.7	195 to 200	0.321	18.7	12.6	3.3
NS(=O)(=O)c1nnc(NC=C2C(=O)Nc3ccccc32)s1 [Compound 4d, 5-{[(2-Oxoindolin-3-ylidene)methyl]amino}-1,3,4-thiadiazole-2-sulfonamide]	3.7	18.8	–	15.8	4.63	12.4	1.52	11.9	23.5	6.28	10.7	7.66	4.95	13.5	210 to 216	0.0084	1.71	1.55	–
O=C(Nc1ccc(NC=C2C(=O)Nc3ccccc32)cc1)Nc1nccs1 [Compound 15c, 1-{4-[((2-Oxoindolin-3-ylidene)methyl)amino]phenyl}-3-(thiazol-2-yl)urea]	62.2	66.6	22.8	65.4	40.8	77.3	73.2	50.2	70.5	59.3	31.4	52	70	67.1	–	> 10	89.3	59.4	64.9
O=C1Nc2ccccc2C1=CNc1ccc(C(=O)C=CNc2nccs2)cc1 [Compound 13c, 3-{[(4-{3-[Thiazol-2-ylamino]acryloyl}phenyl)amino]methylene}indolin-2-one]	25.9	–	–	16.8	59	28.1	5.29	11.4	5.94	–	15.3	10.7	1.09	30.8	260 to 262	> 10	6	3.49	9.06
